# Assay results as given in patent US6706754B2, “Reversed amidines and methods of using for treating, preventing, or inhibiting leishmaniasis” (The United States of America as represented by the …, priority 2000, dated 2004).
# Key:
# [1] = tested on: L. mexicana infected macrophages; assay: Infected macrophage assay, L. mexicana; type: cell-based; settings: for Macrophage IC50 L. mexicana: J774.G8 mouse macrophages, 72 hours, 33° C., number of infected macrophages inhibited by 50%
# Experimental: The susceptibilities of L. mexicania infected macrophages to candidate compounds were determined by the following assay.
# A one week old, confluent culture of J774.G8 mouse macrophages was washed three times with Hank's Balanced Salt Solution (HBSS) without calcium and magnesium (Sigma, St. Louis, Mo.). The J774.G8 mouse macrophages are a continuous cell line that have been cited in the literature as supporting continuous and intracellular growth of various Leishmania sp. and they have been used for drug assays against intracellular parasites, Trypanosoma cruzi and Leishmania sp. See Alcina, A., et al. (1988) Antimicrobial Agents & Chemotherapy. 32(9):1412-5; Mendez, S., et al. (1996) International Journal for Parasitology 26(6):619-22; Hodgkinson, V. H., et al. (1996) Experimental Parasitology 83(1):94-105; and Chang, K. P. (1980) Science 209(4462): 1240-42, which are herein incorporated by reference.
# The macrophages were then incubated at 37° C. in a humidified 5% CO2 incubator for 15 minutes with a Trypsin-EDTA (0.05% Trypsin, 0.53 mM EDTA 4Na) solution (GIBCO BRL, Grand Island, N.Y.). The macrophages were then detached with a cell scraper and suspended by vigorous pipetting. The macrophages were then mixed with a late log phase culture of L. mexicana promastigotes to yield a solution comprising about 5×10^5 macrophages per ml and about 25×10^5 promastigotes per ml in DMEM (pH 7.4) supplemented with 10% heat inactivated fetal calf serum comprising penicillin (50 units/ml) and streptomycin (50 μg/ml).
# The macrophage-parasite mixture was then pipetted into 96-well flat-bottom plates (Costar, Cambridge, Mass.) at 200 μl per well. Infection and attachment of the macrophages was allowed to occur over a period of about 48 hours at 33° C. in a humidified 5% CO2 incubator. The wells were washed three times with HBSS to remove extracellular parasites. Each well was then treated with serial dilutions of a given candidate compound in DMEM.
# The treated plate was incubated for about 72 hours at 33° C. in a humidified 5% CO2 incubator. The macrophages in each well were detached into the DMEM used for the incubation by pipetting and scraping with the tip of a microliter pipettor. 75 μl of the cell suspension was transferred to a cytospin funnel and the cells were centrifuged onto microscope slides at 800 rpm for 5 minutes using a Cytospin centrifuge (Shandon, Pittsburgh, Pa.).
# The slides were air dried and then fixed in methanol for 5 seconds. After the methanol evaporated, the slides were stained with 5% Giemsa stain (Fisher, Suwanee, Ga.) in phosphate buffer comprising 3.1 mM potassium phosphate dibasic and 8.3 mM sodium phosphate monobasic for 45 minutes. After thorough washing with flowing tap water, the slides were air dried and then viewed by oil immersion microscopy to determine percentage of infected cells. A cell was considered to be infected if it comprised one or more amastigote with a visible parasite nucleus and kinetoplast. Counting parasites and counting infected cells provided similar results when determining IC50 values.
# The IC50 values (the concentration of the compound that inhibited the number of infected macrophages by 50%) were determined with the software program TableCurve (SPSS Science, Chicago, Ill.) using the following dose-response equation: y=a+b/(1+(x/c)^d), where x=the drug concentration, y=absorbance at 490 nm, a=upper asymptote, b=slope, c=IC50 and d=lower asymptote. FIG. 3 provides the graphical data obtained for compound 1DWB667 as an example.
# J774.G8 macrophages = assay: Macrophage toxicity assay (sulforhodamine B); type: cell-based, mouse; settings: for IC50 (macrophage toxicity): 72 hours, 37° C., macrophage growth inhibited by 50%; for toxicity to the macrophage (in words): in vitro
# Experimental: The toxicity of the candidate compounds on J774.G8 macrophages was measured using a sulforhodamine B (Molecular Probes, Eugene, Oreg.) based dye assay.
# Specifically, a confluent culture of macrophages in a T75 culture flask was harvested by replacing the growth medium (DMEM supplemented with 10% heat inactivated fetal calf serum, 50 units/ml penicillin, and 50 μg/ml streptomycin) with 25 ml of fresh medium and scraping the cells from the bottom of the culture flask. Cell clumps were broken up by gentle pipetting and the cell suspension was transferred to a 50 ml conical centrifuge tube. The cells were then pelleted by centrifugation at 1,000 rpm at 4° C. for 5 minutes. The supernatant was then removed and the cells were resuspended in 15 ml DMEM.
# After counting an aliquot of the cell suspension, the macrophages were then diluted to about 1×10^5 cells/ml in DMEM and 180 μl was added to each well of a 96 well tissue culture plate Then 20 μl serial dilutions of a given candidate compound was added. The plate was then placed in a 37° C. humidified 5% CO2 incubator and incubated for 72 hours. Then 50 μl of 50% TCA was added to each well to fix the proteins. The plate was then incubated for at least 1 hour at 4° C.
# The liquid contents of the wells were discarded and the wells were washed five times with 200 μl of distilled water. After the final wash the plate was allowed to air dry for 20 minutes. 100 μl of the sulforhodamine B dye (0.4% dye in 1% acetic acid) was added. The plate was then incubated at room temperature for 20 minutes. After discarding the dye solution, the wells were washed five times with 200 μl of 1% acetic acid and then allowed to air dry for 20 minutes. At this time, 50 μl of 10 mM TRIS base was added. After a few minutes of incubation, the absorbance of each well at 490 nm was measured in a SpectraMax Pro microplate reader (Molecular Devices, Sunnyvale, Calif.).
# The IC50 values for each candidate compound (the concentration of the agent that inhibited macrophage growth by 50%) were determined for the macrophages with the aid of the program SoftMax Pro (Molecular Devices, Sunnyvale, Calif.) using the following dose response equation: y=((a−d)/1+(x/c)^b)+d, where x=drug concentration; y=absorbance at 490 nm; a=upper asymptote; b=slope; c=IC50; and d=lower asymptote. FIG. 5 provides the graphical data for compound 1DWB667 as an example.
# L. donovani L82 = assay: In vivo assay, murine visceral model of leishmaniasis; parameters: species or system Leishmania donovani; settings: Table 4; BALB/c mice; 15 μmol/kg i.v. × 5
Substance,Macrophage IC50 L. mexicana [1],IC50 (macrophage toxicity) (J774.G8 macrophages),Macrophage IC50 L. mexicana ([1]; listed as DB667),Macrophage IC50 L. mexicana ([1]; listed as DB710),toxicity to the macrophage (in words) (J774.G8 macrophages),Macrophage IC50 L. mexicana ([1]; listed as DB709),"reduction of parasite burden in L. mexicana infected macrophages (in words) ([1]; in vitro, cutaneous strain)",% inhibition ± S.E.M. (L. donovani L82)
"2,5-Bis[2-methyl-4-(2-pyridylimino)aminophenyl]furan [DB 702]",0.220 µg/mL,2.23 µg/mL,–,–,–,–,–,–
"2,5-Bis[4-(2-pyridylimino)aminophenyl]furan [1DWB 667]",1.37 µg/mL,4.28 µg/mL,about 1.4 μg/ml,–,–,–,–,–
"2,5-Bis[2-methyl-4-(5-methyl-2-pyridylimino)aminophenyl]furan [DB 710]",0.094 µg/mL,3.64 µg/mL,–,about 0.1 μg/ml,about less than or equal to DB 702 and 1DWB667,–,–,–
"2,5-Bis[2-methoxy-4-(2-pyridylimino)aminophenyl]furan [DB 709]",0.127 µg/mL,0.199 µg/mL,–,–,toxic to the macrophage in vitro within the same range of toxicity to the amastigote within the macrophage,about 0.1 μg/ml,–,–
"2,5-Bis[2-chloro-4-(2-pyridylimino)aminophenyl]furan [DB 712]",0.689 µg/mL,3.39 µg/mL,–,–,about less than or equal to DB 702 and 1DWB667,–,least effective in reducing parasite burden,15.33 ± 2.7%
